Measured values from a melting point compilation (Tetko et al.; mined from patent text by program, amines drawn as free bases though some values may be those of a salt).

Compound	melting point
CCN(CC)C(=N)N[N+](=O)[O-]	96 to 97 °C
COc1ncnc(OC)c1N(C(=O)CCl)C(C)n1cccn1 (configuration not stated)	124 to 126 °C
NS(=O)(=O)Oc1cccc(Cl)c1Cl	116 to 117 °C
CC[Si](CC)(CC)O[C@@H](C(=O)OC)[C@@H](NC(=O)OC(C)(C)C)c1ccc(C(N)=O)cc1	165 °C
Cc1ccc(C)c(C2CC(=O)C(C(=O)c3ccccc3)=C(O)C2)c1 (configuration not stated)	182 to 185 °C
O=C(O)Cc1cccc(C(=O)c2ccc(Cl)cc2)c1[N+](=O)[O-]	164 to 165 °C
NC(=O)C1CCN(c2cc(-c3ccccc3)nc3ccc(F)cc23)CC1	230 to 233 °C
CCCc1c(OCCCCC(=O)c2ccc3cc(O)c(O)cc3c2)ccc(C(=O)O)c1O	213 to 214 °C
Cc1ccc2c(cc(CCCC(=O)O)n2S(=O)(=O)c2ccccc2)n1	172 to 180 °C
COC(=O)C(=NOCF)c1ccccc1COc1ccccc1C	101 to 102 °C
CCOc1ccc(S(=O)(=O)N2c3ccc(Cl)cc3C(O)(c3ccccc3Cl)C2C(=O)N(C)CC(=O)OC)cc1 (configuration not stated)	168 to 171 °C
Cc1nc(-c2ccccc2)nc(N2c3ccccc3CC2C(=O)N(C)c2ccc(Cl)cc2)c1C (configuration not stated)	236 to 238 °C
CCS(=O)(=O)c1cc2c(O)cccc2o1	145 to 147 °C
c1cc(CN2CCCCC2)cc(OCCCCCNc2nc3ccccc3s2)c1	140 to 145 °C
CS(=O)(=O)N1CCCC(Nc2nccc(-n3nnc4ccccc43)n2)C1 (configuration not stated)	196 to 197 °C
COC(=O)C1=C(S(=O)(=O)NC(=O)Nc2nc(C)cc(OC)n2)CCC1	161 to 163 °C
COC(=O)C(CC(C)C)NC(=O)c1ccc(NCc2ncc[nH]2)cc1-c1ccccc1 (configuration not stated)	156 to 160 °C
O=C(Nc1ccc(N2CCC(NC[C@H](O)COc3cccc4[nH]c5ccccc5c34)CC2)cc1)c1ccc2c(c1)OCO2	217 to 223 °C
C=C(C1=C(CCC(=O)OC)C(=O)CC1OCc1ccc(Cl)cc1)c1ccccc1 (configuration not stated)	114 to 115 °C
CN1C(=O)CN2CC(CCl)OC2(c2ccccc2)c2cc(Cl)ccc21 (configuration not stated)	140 to 142 °C
COc1cc(C2C3=C(COC3=O)Nc3ccc4cn[nH]c4c32)cc(OC)c1OC (configuration not stated)	278 to 279 °C
OCC1CC(n2c(Br)nc3cc(Cl)c(Cl)cc32)C(O)C1O (configuration not stated)	208 to 211 °C

Compound	melting point
CCc1ccc(S(=O)(=O)Nc2ccc(Cl)cc2[N+](=O)[O-])cc1	104 to 106 °C
CCCCNC(=O)Nc1ccccc1CCc1cc(C(C)(C)C)c(O)c(C(C)(C)C)c1	133 to 134 °C
Nc1ccc2c(c1)OCC21C(=O)N(CC2CCCO2)c2ccccc21 (configuration not stated)	71 to 74 °C
COc1cccc2c1C(C)(C)C(=O)N2	143 to 144 °C
C#Cc1ncn2c1CN(C)C(=O)c1ccccc1-2	191 to 193 °C
O=c1[nH]c2nc(Cl)nc(Cl)c2s1	191 to 192 °C
COc1ccnc(CS(=O)c2nc3c(C(F)(F)F)cccc3[nH]2)c1 (configuration not stated)	150 to 151 °C
CN(C(=O)Oc1ccc([N+](=O)[O-])cc1)c1ccc(-c2ncn(-c3ccc(OC(F)(F)F)cc3)n2)cc1	145 to 147 °C
C=CCN(CC=C)C(=O)C1CC(C)(C)NC(C)(C)C1	64 to 67 °C
COc1ccc(-n2ncc(C(=O)Nc3ccc(N4CCC(N5CCOCC5)CC4)c(C#N)c3)c2C)cc1	238 °C
O=C(O)Cc1c[nH]c2cc(C(F)(F)F)nn2c1=O	320 to 324 °C
COc1ccc(CCNS(=O)(=O)Cc2ccc3[nH]cc(CCN)c3c2)cc1	128 to 129 °C
COc1cc2c(c(OC(C)=O)c1)C1CCC3(C)C(OC)CCC3C1CC2 (configuration not stated)	81 to 83 °C
O=C(O)c1cnc(CO)s1	193 °C
N/C(=C1/Sc2ccccc2C1=O)c1ccccc1[N+](=O)[O-]	185 to 186 °C
Cc1ccc(Sc2c(Sc3ccc(C)cc3)c(Sc3ccc(C)cc3)c(C(O)=NCCO)c(C(=O)O)c2Sc2ccc(C)cc2)cc1	161 to 162 °C
COC(=O)c1csc(-c2cc3ccccc3[nH]2)n1	69 to 71 °C
CC(C)Oc1ccc(C(=O)c2[nH]c3cc(Cl)ccc3c2CC(=O)O)cc1	216 to 218 °C
COc1ccc2ccc(N3Cc4ccccc4C3OCC(=O)O)nc2n1 (configuration not stated)	190 °C
Nc1cccc(NC(=O)Nc2ccc(N(CCCl)CCCl)cc2)c1	182 to 183 °C
CC1(C)CCC2(Cc3ccc(Cl)cc3)OC2C1=O (configuration not stated)	69 to 70 °C

Continued, values first:

melting point	Compound
220 to 221 °C	CCCCCCCC(=O)c1[nH]c(=O)[nH]c1C
159 °C	COc1ccc(C(=NO)c2ccc(Cl)cc2)c(O)c1
117 to 119 °C	CC(=O)NCC1CN(C(c2ccccc2)c2ccccc2)C1
217 to 218 °C	CCCCNc1cc(C#N)cc(S(N)(=O)=O)c1Oc1ccccc1
162 °C	O=C(NCC1C2(CCCC1(c1ccccc1)c1ccccc1)OCCO2)c1ccccc1 (racemic)
196 to 197 °C	CCOC(=O)NC(=N)NCCSCc1[nH]cnc1C
185 to 186 °C	O=C(N[C@H](Cc1ccc(C(F)(F)F)cc1)[C@@H](O)c1ccc(F)cc1)c1cccc2c1C(=O)c1ccccc1-2 (racemic)
94 to 99 °C	CCCn1cc(Cc2ccc(C(=O)O)cc2OC)c2cc(CC3CCN(CC)C3=O)ccc21 (configuration not stated)
175 to 178 °C	CC(=O)C(=Cc1cc(O)c(O)c([N+](=O)[O-])c1)C(C)=O
130 to 131 °C	CC(C)(NC=O)C(=O)O
159 °C	CCCCCCCNC(=O)Nc1ccccc1C(=O)NC1CCNCC1
158 to 160 °C	CCN(CC)CCNCc1ccc(C(=O)Nc2nc(-c3ccccc3)c(-c3ccc(=O)n(C(C)C)n3)s2)cc1
208 to 210 °C	C=CCNc1nc(-c2ccc(=O)n(C(C)C)n2)c(-c2ccccc2)nc1N
272 to 274 °C	Cn1c2cc(Cl)ccc2c2c(Cl)nc(-c3ccncc3)nc21
202 °C	CCc1cc2c(=O)[nH]c(CO)nc2s1
193 °C	Fc1ccc2c(CCN=c3sc4ccccc4s3)c[nH]c2c1
67 to 69 °C	Brc1cccc(OCc2ccc3ccccc3c2)n1
122 to 124 °C	COc1ccc(C(=O)CCCCCl)cc1S(=O)(=O)NC(C)C
153 to 155 °C	O=C1NCCC[C@@H]1NS(=O)(=O)c1ccc(F)c(F)c1
185 to 188 °C	C=C1CSC2C(NC(=O)COc3ccccc3)C(=O)N2C1C(=O)O (configuration not stated)

melting point	Compound
204 to 206 °C	O=C(O)c1cnc(N2CCCC2)c(OCC2CCCC2)n1
285 °C	Cc1cc(-c2ccc(C(F)(F)F)cc2)cn2c(-c3nc(-c4ccc(S(N)(=O)=O)s4)no3)cnc12
52 to 56 °C	CCc1c(C)sc2ncnc(Cl)c12
223 to 225 °C	CC(C)n1c(=O)nc(-c2ccccc2)c2ccc(CO)cc21
113 to 115 °C	CCC(=O)NCC[C@@H]1CCc2ccc3c(c21)CCO3
> 260 °C	Cn1cc(C(=O)O)c(=O)c2c3cc(N4CCN(c5ccc(F)c(Cl)c5)CC4)c(Cl)c(F)c3ncc21
61.5 to 63.5 °C	O=C(c1ccccc1)c1cnc2c(n1)CCCC2
80 to 81 °C	CC(=O)CC1=C(O)CCCC1=O
> 300 °C	Nc1nc2c(c(=O)[nH]1)CCCC2
46 to 48 °C	CCOC(=O)c1c(C(F)(F)F)nc(OCC)c(C(=O)OC)c1OCC
144 °C	CC(CCCCCc1nc(-c2ccc(Cl)cc2)c(-c2ccc(Cl)cc2)o1)c1nnn[nH]1 (racemic)
128 to 130 °C	CCOc1nn(-c2ccc(C(F)(F)F)cn2)cc1CCOc1cccc(CC(=O)O)c1
179 °C	Cc1oncc1C(=O)Nc1ccc(NC(=O)CBr)cc1
150 to 153 °C	C[C@@H](C(N)=O)c1ccc(NS(=O)(=O)c2ccc(Cl)cc2)cc1
142 to 144 °C	O=C(NCc1cccc2ccccc12)C1CCc2[nH]cnc2C1 (configuration not stated)
40 °C	CSc1ccc(N=C=O)cc1C(F)(F)F
83 to 84 °C	CC(C)c1cc2c(cc1CSCC(=O)O)OCO2
135 to 136 °C	COc1ccc(CCNc2ncnc3occc23)cc1
223 to 224 °C	CC(=O)NCc1cc(-c2ccccc2)c2c(n1)OCCN(Cc1cc(C(F)(F)F)cc(C(F)(F)F)c1)C2=O
108 °C	CCCCc1c(Cc2ccc(-c3ccccc3-c3nnn[nH]3)cc2)c(C(=O)O)nn1CCCC

melting point	Compound
244 to 245 °C	Cc1nc2nccc(-c3cccnc3)n2n1
194 to 196 °C	CN(C)S(=O)(=O)c1cc(-n2c(=O)cc(C(F)(F)F)n(C)c2=O)ccc1Cl
202 °C	Cc1nn(CCOc2ccc(C=C3SC(=O)NC3=O)cc2)c(=O)c2ccccc12
208 to 209 °C	CNC(=O)C1=CC2(CCSCC2)Oc2ccc([N+](=O)[O-])cc21
134 to 137 °C	CC(=O)C(=Cc1ccc(O)c(O)c1)C(C)=O
188 °C	Cc1cccc(NC(=O)NCC(=O)N(CC(=O)N2CCCCC2C)c2ccccc2)c1 (racemic)
174 to 175 °C	CS(=O)(=O)Nc1cc2occ(C=Cc3ccccc3)c(=O)c2cc1Oc1ccccc1
185 to 187 °C	COc1cc(CN2CCN(C)CC2C2=NCCN2)cc(OC)c1OC (configuration not stated)
242 °C	N#Cc1cccc(-c2ccc3c(c2)NC(=O)CO3)c1
111 to 112 °C	O=C(COc1cccc2cccnc12)c1ccc(Cl)cc1
266 to 268 °C	O=S1(=O)c2ccccc2-c2[nH]nc(-c3ccccc3)c21
159 to 161 °C	Cc1ccc(Cn2c(=O)c3c(Cl)cc(Cl)cc3n(Cc3ccccc3)c2=O)o1
246 to 249 °C	O=C1COc2ccc(C3=Cc4ccccc4OC3c3ccccc3)cc2N1 (configuration not stated)
129 to 130 °C	CS(=O)(=O)c1cnc(Cl)c(Cl)c1
144 °C	Cc1nc(-c2nn(Cc3ccccc3F)c3ccccc23)oc1CO
199 to 201 °C	COc1nc(C(F)(F)F)c(F)c(=O)n1-c1cc(C(=O)O)c(Cl)cc1F
145 to 147 °C	Cc1cc(C)nc(SCc2nccc(SCCCSc3ccc4ncc([N+](=O)[O-])n4n3)c2C)n1
62 to 63 °C	C1=CCC(C2CCCCCCC2)N=NC(C2CCCCCCC2)CC=CCC1 (configuration not stated)
65 °C	CN(CCCNc1ncc(Cc2ccc(Cl)cc2)c(=O)[nH]1)c1ccccn1
